According to patent US11702404B2, “GLP-1R modulating compounds” (priority 2019, dated 2023):

Key:
[1] = Microsomal stability, human liver microsomes (predicted hepatic clearance); settings: predicted from in vitro microsomal stability data
GLP-1R = GLP-1R (Homo sapiens, UniProt P43220); experiment: GLP-1R activation: cAMP increase in CHO cells stably expressing GLP-1R; format: cell-based; settings: cAMP increase, CHO cells stably expressing GLP-1R, 10 point dose response, 30 minutes incubation; read-out: EC50
Sequence of GLP-1R (P43220 24-463): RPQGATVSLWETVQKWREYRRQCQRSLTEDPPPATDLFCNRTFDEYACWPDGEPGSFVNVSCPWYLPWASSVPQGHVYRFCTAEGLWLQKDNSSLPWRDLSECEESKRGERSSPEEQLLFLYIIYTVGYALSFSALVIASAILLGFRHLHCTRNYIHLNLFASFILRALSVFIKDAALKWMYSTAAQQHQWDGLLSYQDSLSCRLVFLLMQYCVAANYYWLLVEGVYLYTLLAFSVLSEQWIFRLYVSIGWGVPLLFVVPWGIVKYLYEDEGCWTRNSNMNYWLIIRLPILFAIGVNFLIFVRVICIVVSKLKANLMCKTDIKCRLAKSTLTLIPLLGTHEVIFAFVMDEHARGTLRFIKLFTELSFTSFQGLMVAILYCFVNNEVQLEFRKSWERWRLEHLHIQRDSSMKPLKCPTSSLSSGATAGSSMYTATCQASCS

Structure (SMILES) | Predicted Hepatic Clearance (Pred. Cl.) [1] | EC50 (GLP-1R)
COc1cc(C#N)ncc1COc1cccc(-c2cc(F)c(Cc3nc4ccc(C(=O)O)cc4n3C[C@@H]3CCO3)cc2F)n1 [Example 850, (S)-2-(4-(6-((6-Cyano-4-methoxypyridin-3-yl)methoxy)pyridin-2-yl)-2,5-difluorobenzyl)-1-(oxetan-2-ylmethyl)-1H-benzo[d]imidazole-6-carboxylic acid] | 0.20 L/h/kg | 0.23 nM
COCCn1c(Cc2ccc(-c3cccc(OCc4ccc(C#N)cc4F)n3)cc2F)nc2ccc(P(=O)(O)O)cc21 [Example 555, (2-(4-(6-((4-cyano-2-fluorobenzyl)oxy)pyridin-2-yl)-2-fluorobenzyl)-1-(2-methoxyethyl)-1H-benzo[d]imidazol-6-yl)phosphonic acid] | 0.11 L/h/kg | 57.9 nM
N#CCC1(Cn2c(Cc3cc(F)c(-c4ccnc(OCc5ccc(C(F)F)cc5F)n4)cc3F)nc3ccc(C(=O)O)cc32)CC1 [Example 751] | 0.43 L/h/kg | 0.19 nM
COCCn1c(Cc2ccc(-c3ccc(C)c(OCc4ccc(C#N)cc4F)n3)cc2)nc2ccc(C(=O)O)cc21 (single isomer, unassigned) [Example 24, 2-(4-(6-((4-cyano-2-fluorobenzyl)oxy)-5-methylpyridin-2-yl)benzyl)-1-(2-methoxyethyl)-1H-benzo[d]imidazole-6-carboxylic acid] | 0.13 L/h/kg | 1720 nM
COCCn1c(C2OCCc3cc(-c4cccc(OCc5ccc(C#N)cc5F)n4)ccc32)nc2ccc(C(=O)O)cc21 (single isomer, unassigned) [Example 49, 2-(6-(6-((4-cyano-2-fluorobenzyl)oxy)pyridin-2-yl)isochroman-1-yl)-1-(2-methoxyethyl)-1H-benzo[d]imidazole-6-carboxylic acid] | 0.78 L/h/kg | > 1000 nM
COCCn1c(Cc2ccc(-c3cc(OCc4ccc(C#N)cc4F)ccc3F)cc2F)nc2ccc(C(=O)O)cc21 [Example 28, 2-((5′-((4-cyano-2-fluorobenzyl)oxy)-2′,3-difluoro-[1,1′-biphenyl]-4-yl)methyl)-1-(2-methoxyethyl)-1H-benzo[d]imidazole-6-carboxylic acid] | 0.19 L/h/kg | 94 nM
COCCn1c(Cc2ccc(-c3nc(OCc4ccc(C#N)cc4F)ccc3F)c(F)c2)nc2ccc(C(=O)O)cc21 [Example 114, 2-[[4-[6-[(4-cyano-2-fluoro-phenyl)methoxy]-3-fluoro-2-pyridyl]-3-fluoro-phenyl]methyl]-3-(2-methoxyethyl)benzimidazole-5-carboxylic acid] | 0.355 L/h/kg | 932 nM
N#Cc1ccc(COc2cccc(-c3cc(F)c(Cc4nc5ccc(C(=O)O)cc5n4CC4(C(F)F)COC4)cc3F)n2)c(F)c1 [Example 308, 2-(4-(6-((4-cyano-2-fluorobenzyl)oxy)pyridin-2-yl)-2,5-difluorobenzyl)-1-((3-(difluoromethyl)oxetan-3-yl)methyl)-1H-benzo[d]imidazole-6-carboxylic acid] | 0.35 L/h/kg | 1.26 nM
N#Cc1ccc(COc2cccc(-c3ccc(Cc4nc5ccc(C(=O)O)cc5n4CC4(CF)CC4)c(F)c3)n2)c(F)c1 [Example 10, 2-(4-(6-((4-cyano-2-fluorobenzyl)oxy)pyridin-2-yl)-2-fluorobenzyl)-1-((1-(fluoromethyl)cyclopropyl)methyl)-1H-benzo[d]imidazole-6-carboxylic acid] | 0.17 L/h/kg | 0.57 nM
N#CCC1(Cn2c(Cc3cc(F)c(-c4ncc(F)c(OCc5ccc(C#N)cc5F)n4)cc3F)nc3ccc(C(=O)O)cc32)CC1 [Example 133, 2-(4-(4-((4-cyano-2-fluorobenzyl)oxy)-5-fluoropyrimidin-2-yl)-2,5-difluorobenzyl)-1-((1-(cyanomethyl)cyclopropyl)methyl)-1H-benzo[d]imidazole-6-carboxylic acid] | 0.335 L/h/kg | 0.26 nM
COCCn1c(Cc2ccc(-c3nc(OCc4ccc(C#N)cc4F)ccc3C#N)cc2F)nc2ccc(C(=O)O)cc21 [Example 81, 2-(4-(3-cyano-6-((4-cyano-2-fluorobenzyl)oxy)pyridin-2-yl)-2-fluorobenzyl)-1-(2-methoxyethyl)-1H-benzo[d]imidazole-6-carboxylic acid] | 0.64 L/h/kg | 291 nM
N#Cc1ccc(COc2nc(-c3ccc(Cc4nc5c(F)cc(C(=O)O)cc5n4C[C@@H]4CCO4)cc3F)ccc2F)c(F)c1 [Example 780] | 0.11 L/h/kg | 0.12 nM
N#Cc1ccc(COc2cccc(-c3ccc(Cc4nc5c(F)cc(C(=O)O)cc5n4C[C@@H]4CCO4)cc3)n2)c(F)c1 [Example 633] | 0.29 L/h/kg | 0.17 nM
COCCn1c(Cc2ccc(-c3cccc(NCc4ccc(C#N)cc4F)n3)cc2F)nc2ccc(C(=O)O)cc21 [Example 170, 2-(4-(6-((4-cyano-2-fluorobenzyl)amino)pyridin-2-yl)-2-fluorobenzyl)-1-(2-methoxyethyl)-1H-benzo[d]imidazole-carboxylic acid] | 0.38 L/h/kg | 509 nM
N#CCC1(Cn2c(Cc3cc(F)c(-c4ccnc(OCc5ccc(C#N)cc5F)n4)cc3F)nc3c(F)cc(C(=O)O)cc32)CC1 [Example 268, 2-(4-(2-((4-cyano-2-fluorobenzyl)oxy)pyrimidin-4-yl)-2,5-difluorobenzyl)-1-((1-(cyanomethyl)cyclopropyl)methyl)-4-fluoro-1H-benzo[d]imidazole-6-carboxylic acid] | 0.22 L/h/kg | 15.7 nM
COCCNC(=O)C(Cn1c(Cc2ccc(-c3cccc(OCc4ccc(C#N)cc4F)n3)cc2F)nc2ccc(C(=O)O)cc21)OC (single isomer, unassigned) [Example 335, 2-(4-(6-((4-cyano-2-fluorobenzyl)oxy)pyridin-2-yl)-2-fluorobenzyl)-1-(2-methoxy-3-((2-methoxyethyl)amino)-3-oxopropyl)-1H-benzo[d]imidazole-6-carboxylic acid] | 0.29 L/h/kg | 139 nM
CCn1cncc1Cn1c(Cc2ccc(-c3cccc(OCc4ccc(C#N)cc4F)n3)c(F)c2)nc2c(F)cc(C(=O)O)cc21 [Example 452, 2-(4-(6-((4-cyano-2-fluorobenzyl)oxy)pyridin-2-yl)-3-fluorobenzyl)-1-((1-ethyl-1H-imidazol-5-yl)methyl)-4-fluoro-1H-benzo[d]imidazole-6-carboxylic acid] | 0.43 L/h/kg | 0.16 nM
COCCn1c(Cc2ccc(-c3cccc(OCn4ccc(C(N)=O)cc4=O)n3)cc2F)nc2ccc(C(=O)O)cc21 [Example 502, 2-(4-(6-((4-carbamoyl-2-oxopyridin-1(2H)-yl)methoxy)pyridin-2-yl)-2-fluorobenzyl)-1-(2-methoxyethyl)-1H-benzo[d]imidazole-6-carboxylic acid] | 0.16 L/h/kg | 2380 nM
COCCn1c(Cc2cc(F)c(-c3cccc(OCc4ccc(C#N)cc4F)n3)cc2F)nc2ccc(C(=O)O)c(F)c21 [Example 309, 2-(4-(6-((4-cyano-2-fluorobenzyl)oxy)pyridin-2-yl)-2,5-difluorobenzyl)-7-fluoro-1-(2-methoxyethyl)-1H-benzo[d]imidazole-6-carboxylic acid] | 0.31 L/h/kg | 2.16 nM
COCCn1c(Cc2ccc(-c3cccc(OCc4cccc(COC)c4)n3)cc2F)nc2ccc(C(=O)O)cc21 [Example 509, 2-(2-fluoro-4-(6-((3-(methoxymethyl)benzyl)oxy)pyridin-2-yl)benzyl)-1-(2-methoxyethyl)-1H-benzo[d]imidazole-6-carboxylic acid] | 0.7 L/h/kg | 102 nM
COCCn1c(Cc2cc(F)c(-c3cccc(OCc4ccc(C)cc4F)n3)cc2F)nc2ccc(C(=O)O)cc21 [Example 810] | 0.41 L/h/kg | 0.33 nM
O=C(O)c1ccc2nc(Cc3ccc(-c4cccc(OCc5ccc(C(F)(F)F)nc5)n4)c(F)c3)n(C[C@@H]3CCO3)c2c1 [Example 655] | 0.32 L/h/kg | 1.26 nM
N#Cc1ccc(COc2cccc(-c3cc(F)c(Cc4nc5ccc(C(=O)O)cc5n4Cc4ncco4)cc3F)n2)c(F)c1 [Example 605, 2-(4-(6-((4-cyano-2-fluorobenzyl)oxy)pyridin-2-yl)-2,5-difluorobenzyl)-1-(oxazol-2-ylmethyl)-1H-benzo[d]imidazole-6-carboxylic acid] | 0.3 L/h/kg | 1.57 nM
CNC(=O)C(Cn1c(Cc2ccc(-c3cccc(OCc4ccc(C#N)cc4F)n3)cc2F)nc2ccc(C(=O)O)cc21)OC (single isomer, unassigned) [Example 336, 2-(4-(6-((4-cyano-2-fluorobenzyl)oxy)pyridin-2-yl)-2-fluorobenzyl)-1-(2-methoxy-3-(methylamino)-3-oxopropyl)-1H-benzo[d]imidazole-6-carboxylic acid] | 0.42 L/h/kg | 4.9 nM
COCC(COC)n1c(Cc2cc(F)c(-c3cccc(OCc4ccc(C#N)cc4F)n3)cc2F)nc2ccc(C(=O)O)cc21 [Example 732] | 0.49 L/h/kg | 169 nM
N#Cc1ccc(COc2cccc(-c3cc(F)c(Cc4nc5ccc(C(=O)O)nc5n4CC4(CF)CC4)c(F)c3)n2)c(F)c1 [Example 319, 2-(4-(6-((4-cyano-2-fluorobenzyl)oxy)pyridin-2-yl)-2,6-difluorobenzyl)-3-((1-(fluoromethyl)cyclopropyl)methyl)-3H-imidazo[4,5-b]pyridine-5-carboxylic acid] | <0.11 L/h/kg | 2.43 nM
